Measurements from PMC5722265, “Leishmanicidal compounds of Nectria pseudotrichia, an endophytic fungus isolated from the plant Caesalpinia echinata (Brazilwood)” (Memórias do Instituto Oswaldo Cruz, 2018).
Converted amounts (≈) assume the structure as drawn. Like-named read-outs stand apart in the source and are kept apart here.

How the values were obtained:
[1] = test system: amastigote forms of L. (V.) braziliensis strain MHOM/BR/75/M2903; parameters: method as in de Morais-Teixeira et al. 2014; conditions: different time periods of drug exposure (three, five, and seven days); ref de Morais-Teixeira et al. 2014; cited from earlier work
[2] = parameters: method as in DrugBank Database, DrugBank Version 5.0; conditions: Experimental property; ref DrugBank Database, DrugBank Version 5.0; cited from earlier work
[3] = test system: L. amazonensis promastigotes; parameters: method as in Brissow et al. 2017; conditions: ref Brissow et al. 2017; cited from earlier work
[4] = test system: intracellular amastigote forms of Leishmania (Viannia) braziliensis; test: Antileishmanial assay on intracellular amastigotes of L. (V.) braziliensis LUC (firefly luciferase reporter) in THP-1 macrophages; type: cell-based; conditions: for activity against amastigote forms of L. (V.) braziliensis (in words): L. (V.) braziliensis expressing firefly luciferase; for IC50: Leishmania braziliensis, intracellular amastigotes in THP-1 macrophages, luciferase activity, 72 h
Protocol: Assays with L. (V.) braziliensis - L. (V.) braziliensis (strain MHOM/BR/1994/H3227) promastigotes were maintained in minimum essential culture medium (α-MEM) (Gibco/Brl, Grand Island, NY, USA) supplemented with 10% (v/v) heat inactivated foetal bovine serum (FBS, Cultilab, Campinas, SP, Brazil), […] kanamycin, […] ampicillin, 2 mm L-glutamine, 5 mg/mL hemin, and 5 mm biopterin (Sigma-Aldrich, St. Louis, USA), at pH 7.0 and incubated at 25°C.
For this assay, we used L. (V.) braziliensis LUC expressing firefly luciferase as a reporter gene. The transfection was performed as previously described ([Roy et al. 2000]). Human monocyte-derived macrophage cell line, THP-1, was maintained in RPMI 1640 medium supplemented with 10% FBS and differentiated in the presence of 20 ng/mL phorbol myristate for 72 h at 37°C. Cells were infected with L. (V.) braziliensis LUC promastigotes at a parasite/macrophage ratio of 10:1 for 3 h in a white walled 96-well tissue culture plate. Non-internalised parasites were removed by five washes with HEPES/NaCl buffer (20 mm HEPES, 0.15 M NaCl, 10 mm glucose, pH 7.2). The infected cells were then treated with 1.5-200.0 µg/mL of sample-tests and 0.006-0.8 µM of amphotericin B (positive control). After 72 h, RPMI was aspirated and luciferase activity was assessed by adding 20 µL reconstituted One-Glo™ Luciferase Assay system solution as enzyme substrate, following the manufacturer's instructions (Promega, Madison, WI, USA). Luciferase activity was measured by luminescence detection in a SpectraMax M5 luminometer (Molecular Devices, Sunnyvale, CA, USA) using 1 s integration/well. Non-infected THP-1 macrophages were used as signal background while non-treated infected THP-1 macrophages were used as control for growth comparison. Antileishmanial activity was expressed as the concentration required to inhibit 50% of parasite growth, as calculated by sigmoidal regression analyses using GraphPad Prism (Version 6.0c, GraphPad Software Inc., La Jolla, CA, USA).

[5] = test system: THP-1 cells; test: Toxicity on host THP-1 macrophages, MTT; type: cell-based; conditions: for IC50: Homo sapiens, read-out: THP-1 IC50; for toxicity to THP-1 cells (in words): concentration range tested
Protocol: To assess toxicity of the compounds on the host cells, THP-1 macrophages were seeded in 96-well plates at a density of 2 × 10^5 cells per well, differentiated in the presence of 20 ng/mL phorbol myristate for 72 h at 37°C, and treated with 1.5-200.0 µg/mL of the compounds or 1.5-200.0 μM of Amphotericin B. After 72 h treatment with compounds, cell death was estimated using MTT, which is metabolised by viable cells resulting in a purple product that can be quantified using a spectrophotometer (absorbance at 570 nm). The results were calculated from the absorbance measurements using the percentage of cell death in relation to the untreated cell controls.

[6] = test system: Vero cells; test: Cytotoxicity assay using Vero cells, MTT; type: cell-based, African green monkey; conditions: for IC50: Chlorocebus sabaeus, Vero, 72 h, read-out: Vero IC50; for toxicity to Vero cells (in words): concentration range tested; for selectivity index (SI): IC50 Vero cells/IC50 L. (V.) braziliensis
Protocol: Cytotoxicity assay using Vero cells - African green monkey kidney cells (Vero) were used as model of normal cells and were provided by Erna Kroon (Federal University of Minas Gerais, Brazil). The cells were maintained in DMEM medium (Sigma-Aldrich), containing 5% FBS (Gibco/Brl), enriched with 1% antibiotic solution (100 IU/mL penicillin and 100 µg/mL streptomycin, Gibco/Brl). Vero cells were inoculated in 96 well plates at 1 × 10^4 cells/well and the plates incubated for 24 h at 37°C. The samples and amphotericin B (positive control) were dissolved in DMSO (Sigma-Aldrich). […] All cell cultures were incubated in a 5% CO2/95% humidified air atmosphere at 37°C for 72 h. Wells with 0.5% v/v DMSO were used as a negative control. All medium and reagents used in the assays were endotoxin free. Cell viability was estimated by measuring the mitochondrial reduction of MTT ([Monks et al. 1991]). The samples were tested in triplicate in two independent experiments. The results were expressed as percentage of viability in relation to the negative control (DMSO, 0.5% v/v), calculated as follows: percentage of cell viability (%) = [(treated mean OD / negative control) x 100] and obtained from two independent experiments performed in triplicate. The IC50 values were calculated by non-linear regression using GraphPad Prism® Version 5.01 software. The selective index (SI) was calculated by dividing IC50 Vero cells/IC50 L. (V.) braziliensis.

[7] = test system: tumour xenographs; parameters: method as in Rahier et al. (2015); conditions: ref Rahier et al. (2015); cited from earlier work
[8] = test system: KB cells; parameters: method as in Anderson et al. 1985; conditions: human mouth epidermoid carcinoma; ref Anderson et al. 1985; cited from earlier work
[9] = test system: BC-1 human breast cancer cells; parameters: method as in Anderson et al. 1985; conditions: ref Anderson et al. 1985; cited from earlier work
[10] = test system: Plasmodium falciparum (3D7); parameters: method as in Calcul et al. 2013; conditions: at 25 nM; ref Calcul et al. 2013; cited from earlier work
[11] = test system: A549 cells; parameters: method as in Calcul et al. 2013; conditions: at 25 nM; ref Calcul et al. 2013; cited from earlier work
[12] = test system: Leishmania promastigotes and intracellular amastigotes in macrophages; parameters: method as in Roy et al. (2014); conditions: ref Roy et al. (2014); cited from earlier work

| Compound | IC50 [1] [µM] | IC50 [4] [µM] | IC50 ([5]; THP-1, MTT, 72 h) [µM] | IC50 ([6]; MTT) [µM] | further results |
| --- | --- | --- | --- | --- | --- |
| CC[C@H]1OC(=O)[C@H](C)[C@@H](O[C@H]2C[C@@](C)(OC)[C@@H](O)[C@H](C)O2)[C@H](C)[C@@H](O[C@@H]2O[C@H](C)C[C@H](N(C)C)[C@H]2O)[C@](C)(O)C[C@@H](C)CN(C)[C@H](C)[C@@H](O)[C@]1(C)O [azithromycin] | 5.7 |  |  |  |  |
| N=C(N)c1ccc(OCCCCCOc2ccc(C(=N)N)cc2)cc1 [Pentamidine, pentamidine] |  |  |  |  | Log P [E] [2]: 4 |
| Meglumine antimoniate | 178 to 330 |  |  |  |  |
| NC[C@@H]1O[C@H](O[C@H]2[C@@H](O)[C@H](O[C@@H]3[C@@H](O)[C@H](N)C[C@H](N)[C@H]3O[C@H]3O[C@H](CO)[C@@H](O)[C@H](O)[C@H]3N)O[C@@H]2CO)[C@H](N)[C@@H](O)[C@@H]1O [paromomycin] | 234 to 344 |  |  |  |  |
| 18-des-hydroxy cytochalasin H |  |  |  |  | IC50, viability of L. amazonensis promastigotes [3]: 9.2 µg/mL |
| CC(C)[C@H]1CC[C@H]2COC(=O)[C@H]2[C@@H]1/C=C(\CO)C(=O)O [Compound 6, xylaric acid D] |  | > 200 | > 200 | > 200 | activity against amastigote forms of L. (V.) braziliensis (in words) [4]: activity against L. (V.) braziliensis was lost |
| CC(C)[C@H]1CC[C@@]2(CO2)[C@H]2C(=O)OCC(C(=O)O)=C[C@H]12 [heptelidic acid] |  |  |  |  | activity in vivo (in words) [7]: very modest activity in vivo |
| C[C@@H]1[C@H](O)[C@@H](C)/C=C/C=C/C=C/C=C/C=C/C=C/C=C/[C@H](O[C@@H]2O[C@H](C)[C@@H](O)[C@H](N)[C@@H]2O)C[C@@H]2O[C@](O)(C[C@@H](O)C[C@@H](O)[C@H](O)CC[C@@H](O)C[C@@H](O)CC(=O)O[C@H]1C)C[C@H](O)[C@H]2C(=O)O [Amphotericin B, reference compound] | 0.02 to 0.06 | 0.12 | 12 | 18.2 |  |
| CC(=O)OCCCCC/C=C(/C(=O)O)[C@H](C)C(=O)O [Compound 2, (+)-6′-acetoxy-piliformic acid] |  | 28.3 | > 200 | > 200 | toxicity to THP-1 cells (in words) ([5]; MTT): low toxicity; toxicity to Vero cells (in words) ([6]; MTT): low toxicity |
| CCCCC/C=C(/C(=O)O)[C@H](C)C(=O)O [Compound 4, (+)-piliformic acid] |  | 78.5 | > 200 | > 200 | selectivity index (SI) [6]: 2.5; IC50 KB cells [8]: 13 µg/mL (≈ 60.7 µM); IC50 BC-1 human breast cancer cells [9]: 5 µg/mL (≈ 23.3 µM); activity against Plasmodium falciparum (3D7) (in words) [10]: inactive; activity against A549 cells (in words) [11]: inactive |
| C=CCCC/C=C(/C(=O)O)[C@H](C)C(=O)O [Compound 3] |  | > 200 | > 200 | > 200 | activity against amastigote forms of L. (V.) braziliensis (in words) [4]: not active |
| CCCCCCCCCCCCCCCCOP(=O)([O-])OCC[N+](C)(C)C [miltefosine] | 0.8 to 5.4 |  |  |  |  |
| CC(C)C1CCC2(O)COC(=O)C2C1C=C(CO)C(=O)O (stereo not shown) [Compound 5, hydroheptelidic acid] |  | 24.8 | > 200 | > 200 | activity against amastigote forms of L. (V.) braziliensis (in words) [4]: showed activity; toxicity to THP-1 cells (in words) ([5]; MTT): low toxicity; toxicity to Vero cells (in words) ([6]; MTT): low toxicity |
| C=C1[C@@H](C)[C@H]2[C@H](Cc3ccccc3)NC(=O)[C@]23[C@H](OC(C)=O)/C=C/[C@@](C)(O)C(=O)[C@@H](C)C/C=C/[C@H]3[C@@H]1O [Compound 7, (+)-cytochalasin D] |  | 72.6 |  |  | IC50 ([5]; THP-1, 72 h): > 200 µM; IC50 [6]: > 200 µM; effect on Leishmania attachment and intracellular amastigote load in macrophages (in words) [12]: reduce the attachment of Leishmania promastigotes and the intracellular amastigote load |
| CC(=O)O[C@@]1(CO)CC[C@H](C(C)C)[C@H]2C=C(C(=O)O)COC(=O)[C@@H]21 [Compound 1, (+)-(5aS,6R,9S,9aS)-9-(acetyloxy)-9-(hydroxymethyl)-1-oxo-6-(propan-2-yl)-1,3,5a,6,7,8,9,9a-octahydro-2-benzoxepine-4-carboxylic acid] |  | 21.4 | > 200 | > 200 | activity against amastigote forms of L. (V.) braziliensis (in words) [4]: active; toxicity to THP-1 cells (in words) ([5]; MTT): low toxicity; selectivity index (SI) [6]: 9.3; toxicity to Vero cells (in words) ([6]; MTT): low toxicity |
